One may read the IC50 as the concentration that inhibits the measured activity by half. A low value points to greater potency. By inhibition is commonly meant the drop in the measured response relative to a control, in per cent.

The first assay deals with T1, human TREK-1 (Homo sapiens, UniProt O95069).
T1 construct: expressed in transfected cells
T1 sequence (O95069 1-426): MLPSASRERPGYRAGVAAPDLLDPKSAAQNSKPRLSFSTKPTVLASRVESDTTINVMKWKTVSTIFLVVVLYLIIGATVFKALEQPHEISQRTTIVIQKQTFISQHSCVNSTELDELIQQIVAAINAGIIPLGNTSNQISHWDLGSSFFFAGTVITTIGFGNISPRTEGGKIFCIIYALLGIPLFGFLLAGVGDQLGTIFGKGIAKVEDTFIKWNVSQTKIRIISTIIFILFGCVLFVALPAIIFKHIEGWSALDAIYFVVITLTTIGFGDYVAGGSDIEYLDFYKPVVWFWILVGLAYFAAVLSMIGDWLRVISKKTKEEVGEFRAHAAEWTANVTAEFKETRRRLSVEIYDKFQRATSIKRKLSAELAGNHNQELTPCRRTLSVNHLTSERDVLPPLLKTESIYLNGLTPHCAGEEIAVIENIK
Nature of the assay: TREK-1 Thallium (Tl+) flux assay, Method 1. In kind it is cell-based. The note with it: TREK-1 Thallium (Tl+) flux assay, Method 1. In a few lines: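 Readout: Thallos fluorescence ratio, taken 25 s post-thallium relative to the pre-thallium baseline average, then converted to % inhibition. Cells were CHO-K1 stably expressing human TREK-1, dye-loaded and exposed to test compound (vehicle 0.3% DMSO) for 10 min prior to thallium stimulation.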
`Cc1cc(OCc2ccccc2)ccc1NC(=O)c1c(Cl)cnn1[C@H]1CC[C@@H](NC(=O)OC(C)(C)C)CC1` [Compound 404, tert-butyl (cis-4-(5-((4-(benzyloxy)-2-methylphenyl)carbamoyl)-4-chloro-1H-pyrazol-1-yl)cyclohexyl)carbamate]: the IC50 was 2300 nM.
Still for that read-out and setting: the figure for `CC(=O)N1CCC(n2ncc(Cl)c2C(=O)Nc2ncc(-c3ccc(CC(C)C)cc3)cc2C)CC1` [Compound 418, 1-(1-acetylpiperidin-4-yl)-4-chloro-N-(5-(4-isobutylphenyl)-3-methylpyridin-2-yl)-1H-pyrazole-5-carboxamide] is 4170 nM.

The same assay, now with this note: TREK-1 Thallium (Tl+) flux assay; no *^12 (Method 2) mark on these rows.
Consider `CC(C)(C)OC(=O)N1CCC(n2ncc(Cl)c2C(=O)Nc2c(F)cc(C#Cc3ccccc3)cc2F)C1` (stereo not drawn) [Compound 297, tert-butyl 3-(4-chloro-5-((2,6-difluoro-4-(phenyethynyl)phenyl)carbamoyl)-1H-pyrazol-1-yl)pyrroldine-1-carboxylate], for which the IC50 was 540 nM.
Take `CC(=O)N1CCC(Cn2ncc(Cl)c2C(=O)Nc2ncc(C#Cc3ccccc3F)cc2C)CC1` [Compound 356, 1-((1-acetylpiperidin-4-yl)methyl)-4-chloro-N-(5-((2-fluorophenyl)ethynyl)-3-methylpyridin-2-yl)-1H-pyrazole-5-carboxamide]: the IC50 came to 860 nM.
On the same count and under the same terms, the figure for `CC1(Cn2ncc(Cl)c2C(=O)Nc2ncc(C#Cc3ccccc3)cc2F)CCCO1` (stereo not drawn) [Compound 279, 4-chloro-N-(3-fluoro-5-(phenylethynyl)pyridin-2-yl)-1-((2-methyltetrahydrofuran-2-yl)methyl)-1H-pyrazole-5-carboxamide] is 490 nM; for `Cc1cc(C#Cc2ccc(F)cc2)cnc1NC(=O)c1c(Cl)cnn1CC1CCN(C(=O)C(C)C)CC1(F)F` (stereo not drawn) [Compound 350, 4-chloro-1-((3,3-difluoro-1-isobutyrylpiperidin-4-yl)methyl)-N-(5-((4-fluorophenyl)ethynyl)-3-methylpyridin-2-yl)-1H-pyrazole-5-carboxamide] it is 820 nM.
Molecule `Cn1ncc2cc(-n3ncc(Cl)c3C(=O)Nc3ncc(C#Cc4ccccc4)cc3F)ccc21` [Compound 270, 4-chloro-N-(3-fluoro-5-(phenylethynyl)pyridin-2-yl)-1-(1-methyl-1H-indazole-5-yl)-1H-pyrazole-5-carboxamide] had an IC50 of 460 nM.
Regarding `CO[C@@H](C)Cn1ncc(Cl)c1C(=O)Nc1ncc(C#Cc2ccccc2)cc1C` [Compound 218, (S)-4-chloro-1-(2-methoxypropyl)-N-(3-methyl-5-(phenylethynyl)pyridin-2-yl)-1H-pyrazole-5-carboxamide], half-maximal inhibition (IC50) required 340 nM.
`Cc1cc(C#Cc2ccccc2)cnc1NC(=O)c1c(Cl)cnn1-c1ccc2occc2c1` [Compound 304, 1-(benzofuran-5-yl)-4-chloro-N-(3-methyl-5-(phenylethynyl)pyridin-2-yl)-1H-pyrazole-5-carboxamide]: 570 nM corresponded to half-maximal inhibition (IC50).
As for “4-chloro-1-[(2s,4r)-6-(cyclopropanecarbonyl)-6-azaspiro[3.4]octan-2-yl]-N-{5-[(4-fluorophenyl)ethynyl]-3-methylpyridin-2-yl}-1H-pyrazole-5-carboxamide or 4-chloro-1-[(2r,4s)-6-(cyclopropanecarbonyl)-6-azaspiro[3.4]octan-2-yl]-N-{5-[(4-fluorophenyl)ethynyl]-3-methylpyridin-2-yl}-1H-pyrazole-5-carboxamide [Compound 362]”, the IC50 was 910 nM.
On the same count and under the same terms, to `Cc1cc(-c2cnn(-c3ccc(F)cc3)c2)cnc1NC(=O)c1c(Cl)cnn1C[C@H]1CCOC1` [Compound 387, (R)-4-chloro-N-(5-(1-(4-fluorophenyl)-1H-pyrazol-4-yl)-3-methylpyridin-2-yl)-1-((tetrahydrofuran-3-yl)methyl)-1H-pyrazole-5-carboxamide] belongs 900 nM.
Still for that read-out and setting: to `Cc1cc(C#Cc2ccc(F)cc2)cnc1NC(=O)c1c(Cl)cnn1CC1(F)CCN(C(=O)C2CC2)CC1` [Compound 302, 4-chloro-1-((1-(cyclopropanecarbonyl)-4-fluoropiperidin-4-yl)methyl)-N-(5-((4-fluorophenyl)ethynyl)-3-methylpyridin-2-yl)-1H-pyrazole-5-carboxamide] belongs 550 nM.
The same measure, in the same setting: to `Cc1cc(C#Cc2ccccc2)cnc1NC(=O)c1c(Cl)cnn1[C@@H]1CCN(C(=O)OC(C)(C)C)C1` [Compound 353, tert-butyl (R)-3-(4-chloro-5-((3-methyl-5-(phenylethynyl)pyridin-2-yl)carbamoyl)-1H-pyrazol-1-yl)pyrrolidine-1-carboxylate] belongs 850 nM.

Still in this assay, the particulars now being: TREK-1 Thallium (Tl+) flux assay; values without footnote *12 are Method 1.
Turning to `Cc1cc(C#Cc2cccs2)cnc1NC(=O)c1c(Cl)cnn1C1CC2(C1)CN(C(=O)C1COCCO1)C2` (stereo not drawn) [Compound 97, 1-(2-(1,4-dioxane-2-carbonyl)-2-azaspiro[3.3]heptan-6-yl)-4-chloro-N-(3-methyl-5-(thiophen-2-ylethynyl)pyridin-2-yl)-1H-pyrazole-5-carboxamide], it took 180 nM to reach half-maximal inhibition (IC50).
The same measure, in the same setting: to `Cc1cc(C#Cc2cccs2)cnc1NC(=O)c1c(Cl)cnn1C1CC2(C1)CN(C(=O)C(C)C)C2` [Compound 46, 4-chloro-1-(2-isobutyryl-2-azaspiro[3.3]heptan-6-yl)-N-(3-methyl-5-(thiophen-2-ylethynyl)pyridin-2-yl)-1H-pyrazole-5-carboxamide] belongs 130 nM; to `CC(=O)N1CCC(Cn2ncc(Cl)c2C(=O)Nc2ncc(C#Cc3ccccc3)cc2C)C(F)(F)C1` (stereo not drawn) [Compound 98, 1-((1-acetyl-3,3-difluoropiperidin-4-yl)methyl)-4-chloro-N-(3-methyl-5-(phenylethynyl)pyridin-2-yl)-1H-pyrazole-5-carboxamide], 180 nM.
In turn, `CCNC(=O)N1CCC(n2ncc(Cl)c2C(=O)Nc2ncc(C#Cc3ccccc3)cc2C)CC1` [Compound 90, 4-(4-chloro-5-((3-methyl-5-(phenylethynyl)pyridin-2-yl)carbamoyl)-1H-pyrazol-1-yl)-N-ethylpiperidine-1-carboxamide] returned a half-inhibitory concentration (IC50) of 180 nM.
Still for that read-out and setting: to `O=C(Nc1ncc(C#Cc2ccccc2)cc1F)c1c(Cl)cnn1C1CCN(C(=O)CC(F)(F)F)CC1` [Compound 55, 4-chloro-N-(3-fluoro-5-(phenylethynyl)pyridin-2-yl)-1-(1-(3,3,3-trifluoropropanoyl)piperidin-4-yl)-1H-pyrazole-5-carboxamide] belongs 140 nM; to `O=C(Nc1ncc(C#Cc2ccccc2)cc1F)c1c(Cl)cnn1C[C@@H]1CCOC1` [Compound 148, (S)-4-chloro-N-(3-fluoro-5-(phenylethynyl)pyridin-2-yl)-1-((tetrahydrofuran-3-yl)methyl)-1H-pyrazole-5-carboxamide], 240 nM.

The same assay, now with this note: read-out: Tl^+ Assay % inhibition at 30 uM (Minus value indicates activation of TREK-1); at 30 uM; CHO-K1 cells stably expressing human TREK-1; minus = activation.
Regarding `O=C(Nc1ncc(C#Cc2cccs2)cc1F)c1nn(CCC2CCN(C(=O)C3COCCO3)CC2)cc1Cl` (stereo not drawn) [Compound 448, 1-(2-(1-(1,4-dioxane-2-carbonyl)piperidin-4-yl)ethyl)-4-chloro-N-(3-fluoro-5-(thiophen-2-ylethynyl)pyridin-2-yl)-1H-pyrazole-3-carboxamide], the inhibition at 30 µM is -106%.
Same read-out and setting: the figure for `Cc1cc(C#Cc2ccccc2)cnc1NC(=O)c1nn(CC2COCCO2)cc1Cl` (stereo not drawn) [Compound 449, 1-((1,4-dioxan-2-yl)methyl)-4-chloro-N-(3-methyl-5-(phenylethynyl)pyridin-2-yl)-1H-pyrazole-3-carboxamide] is -99%.

The values are drawn from US20240182445A1 (ONO PHARMACEUTICAL CO., LTD., priority 2019, published 2024).
